Reference: US20230340012A1, “NATURAL AND SYNTHETIC COMPOUNDS FOR TREATING CANCER AND OTHER DISEASES” (PACIFIC ARROW LIMITED, priority 2009, published 2023)
Where two headings read alike, the source gives them in different places.

Key:
cancer cells [1] = experiment: Inhibition of cancer growth, cancer invasion, cell invasion or cancer cell invasion; assay type: cell-based
Excerpt: The program is based on our purification methods and biological assays including the MTT assay. See International Application No. PCT/US05/31900, filed Sep. 7, 2005, U.S. Serial No. 11/289,142, filed Nov. 28, 2005, and U.S. Serial No. 11/131551, filed May 17, 2005, and PCT/US2008/002086, 1188-ALA-PCT, filed Feb. 15, 2008, 12/344,682, 1020-B1-US, filed Dec. 29, 2008. The details of Analysis of gene expression of ES2 cells after Y-treatment by Microarray, Data Analysis Methods and Western blot in PCT/US2008/002086, 1188-ALA-PCT, filed Feb. 15, 2008, and the cell invasion experiments methods in International Application PCT/US2010/0042240, filed Jul. 16, 2010.

Erythrocytes (RBC) = experiment: The haemolytic assay; conditions: in words, no concentration given
cancer cells [2] = experiment: MTT cytotoxic assay of esterification products (Cytotoxicity activity); assay type: cell-based, human
How it was run: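 Cytotoxicity was read by MTT (Carmichael method, modified), with cells seeded 24 h ahead of treatment. Sixteen human cancer lines spanning bone, lung, bladder, ovary, colon, pancreas, prostate, skin, mouth, kidney, breast, liver, brain, leukemia and cervix were used. Test samples were acyl chloride esterification products of triterpenes, as mixtures or HPLC-purified compounds.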

[3] = esterification products isolated with HPLC, graded strong / moderate / weak
[4] = esterification products of E4A—Tig—N with senecioyl chloride

Compound	Cytotoxicity activity (cancer cells [2]; [3])	Cytotoxicity activity (cancer cells [2]; [4])	other results
CC1O[C@@H](OC2[C@H](OC3[C@H](O[C@H]4C(O[C@@H]5OC(CO)[C@H](O)[C@@H](O)C5O)[C@H](O[C@H]5CC[C@@]6(C)C(CC[C@]7(C)C6CC[C@]68O[C@H](O)[C@]9(C6CC(C)(C)[C@@H](O)[C@@H]9O)[C@H](O)C[C@]87C)C5(C)C)OC(C(=O)O)[C@H]4O)OC(CO)[C@H](O)[C@H]3O)OC(C)[C@H](O)[C@@H]2O)C(O)[C@@H](O)[C@H]1O (stereo partly shown) [AKOH-M10]			inhibiting cancer growth, cancer invasion, cell invasion or cancer cell invasion (cancer cells [1]): do not show the ability
CC1(C)CC2C3=CCC4[C@@]5(C)CC[C@H](O[C@@H]6OC(C(=O)O)[C@@H](O)[C@@H](O[C@@H]7O[C@@H](CO)[C@@H](O)C7O)C6O[C@@H]6OC(CO)[C@H](O)[C@@H](O)C6O)C(C)(C)C5CC[C@@]4(C)[C@]3(C)[C@@H](O)[C@@H](O)[C@@]2(CO)[C@@H](O)[C@@H]1O (stereo partly shown) [AKOH]			hemolytic activity (Erythrocytes (RBC)): no hemolytic activity; anti-cancer activity (cancer cells [1]): no anti-cancer activity; inhibiting cancer growth, cancer invasion, cell invasion or cancer cell invasion (cancer cells [1]): no effect; inhibiting cancer growth, cancer invasion, cell invasion or cancer cell invasion (cancer cells [1]; listed as AKOH-Y): do not show the ability
CC1(C)CC2C3=CCC4C5(C)CCC(O)C(C)(CO)C5CCC4(C)C3(C)C(O)C(O)C2(CO)C(O)C1O (stereo not shown) [Compound E4AY2]			hemolytic activity (Erythrocytes (RBC)): no hemolytic activity; anti-cancer activity (cancer cells [1]): no anti-cancer activity
CC1(C)CC2C3=CCC4C5(C)CCC(O)C(C)(C)C5CCC4(C)C3(C)CC(O)C2(CO)C(O)C1O (stereo not shown) [Compound E5A]			hemolytic activity (Erythrocytes (RBC)): no hemolytic activity; anti-cancer activity (cancer cells [1]): no anti-cancer activity; inhibiting cancer growth, cancer invasion, cell invasion or cancer cell invasion (cancer cells [1]): no effect
C=CCCC(=O)OC1CCC2(C)C(CCC3(C)C2CC=C2C4CC(C)(C)C(O)C(O)C4(COC(=O)C(C)=CC)C(O)CC23C)C1(C)COC(=O)C(C)=CC (stereo not shown) [Tig—R—Pen—4]	moderate		
CC=C(C)C(=O)OCC1(C)C(O)CCC2(C)C1CCC1(C)C2CC=C2C3CC(C)(C)C(OC(=O)C=C(C)C)C(OC(=O)C=C(C)C)C3(COC(=O)C(C)=CC)C(O)CC21C (stereo not shown) [Tig—R—Sen—1]	weak		
CC=C(C)C(=O)OCC1(C)C(O)CCC2(C)C1CCC1(C)C2CC=C2C3CC(C)(C)C(OC(=O)C=C(C)C)C(O)C3(COC(=O)C(C)=CC)C(O)CC21C (stereo not shown) [Tig—R—Sen—2]	moderate		
CC=C(C)C(=O)OCC1(C)C(O)CCC2(C)C1CCC1(C)C2CC=C2C3CC(C)(C)C(O)C(OC(=O)C=C(C)C)C3(COC(=O)C(C)=CC)C(O)CC21C (stereo not shown) [Tig—R—Sen—3]	moderate		
CC=C(C)C(=O)OCC1(C)C(OC(=O)C=C(C)C)CCC2(C)C1CCC1(C)C2CC=C2C3CC(C)(C)C(O)C(O)C3(COC(=O)C(C)=CC)C(O)CC21C (stereo not shown) [Tig—R—Sen—4]	moderate		
CC=C(C)C(=O)OCC1(C)C(OC(=O)C=C(C)C)CCC2(C)C1CCC1(C)C2CC=C2C3CC(C)(C)C(OC(=O)C=C(C)C)C(O)C3(COC(=O)C(C)=CC)C(O)CC21C (stereo not shown) [Tig—R—Sen—5]	weak		
CC=C(C)C(=O)OCC1(C)C(OC(=O)C=C(C)C)CCC2(C)C1CCC1(C)C2CC=C2C3CC(C)(C)C(O)C(OC(=O)C=C(C)C)C3(COC(=O)C(C)=CC)C(O)CC21C (stereo not shown) [Tig—R—Sen—6]	weak		
CC=C(C)C(=O)OCC1(C)C(O)CCC2(C)C1CCC1(C)C2CC=C2C3CC(C)(C)C(OC(=O)C=C(C)C)C(O)C3(COC(=O)C=C(C)C)C(O)CC21C (stereo not shown) [Tig—Sen—2]		moderate	
CC=C(C)C(=O)OCC1(C)C(O)CCC2(C)C1CCC1(C)C2CC=C2C3CC(C)(C)C(O)C(OC(=O)C=C(C)C)C3(COC(=O)C=C(C)C)C(O)CC21C (stereo not shown) [Tig—Sen—3]		moderate	
CC=C(C)C(=O)OCC1(C)C(OC(=O)C=C(C)C)CCC2(C)C1CCC1(C)C2CC=C2C3CC(C)(C)C(O)C(O)C3(COC(=O)C=C(C)C)C(O)CC21C (stereo not shown) [Tig—Sen—4]		moderate	
CC=C(C)C(=O)OCC1(C)C(O)CCC2(C)C1CCC1(C)C2CC=C2C3CC(C)(C)C(OC(=O)C=C(C)C)C(O)C3(CO)C(O)CC21C (stereo not shown) [Tig—Sen—5]		moderate	
CC=C(C)C(=O)OCC1(C)C(O)CCC2(C)C1CCC1(C)C2CC=C2C3CC(C)(C)C(O)C(OC(=O)C=C(C)C)C3(CO)C(O)CC21C (stereo not shown) [Tig—Sen—6]		moderate	
